Results taken from patent US9695155B2, “Herbicidal substituted pyrimidinyloxy benzene compounds” (E. I. DU PONT DE NEMOURS AND COMPANY, priority 2013, dated 2017).

Key:
[1] = test system: field poppy; assay: Test D preemergence; assay type: in vivo, Papaver rhoeas; settings: Papaver rhoeas, pre-emergence, scale 0-100, read-out: Plant response rating, Field Poppy
Method in brief: (§1)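 Species were sown in silt loam for preemergence treatment, or grown in peat-based medium to the 1–4-leaf stage (2–18 cm) for postemergence sprays. Test chemicals were formulated in a non-phytotoxic solvent mixture with surfactant. After 7–21 days in a controlled environment, plants were rated visually against controls on a 0 (no effect) to 100 (complete control) scale.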

[2] = test system: wild mustard; assay: Test D postemergence; assay type: in vivo, Sinapis arvensis; settings: Brassica, post-emergence, scale 0 to 100 (0 no effect, 100 complete control), read-out: Plant response rating, Mustard, Wild
Text: (§2) Seeds of plant species selected from bluegrass (annual bluegrass, Poa annua), blackgrass (Alopecurus myosuroides), canarygrass (littleseed canarygrass, Phalaris minor), chickweed (common chickweed, Stellaria media), galium (catchweed bedstraw, Galium aparine), bromegrass, downy (downy bromegrass, Bromus tectorum), field poppy (Papaver rhoeas), field violet (Viola arvensis), green foxtail (Setaria viridis), deadnettle (henbit deadnettle, Lamium amplexicaule), Italian ryegrass (Lolium multiflorum), kochia (Kochia scoparia), lambsquarters (Chenopodium album), oilseed rape (Brassica napus), pigweed (Amaranthus retroflexus), chamomile (scentless chamomile, Matricaria inodora), Russian thistle (Salsola kali), speedwell (bird's-eye speedwell, Veronica persica), spring barley (Hordeum vulgare), spring wheat (Triticum aestivum), wild buckwheat (Polygonum convolvulus), wild mustard (Sinapis arvensis), wild oat (Avena fatua), wild radish (Raphanus raphanistrum), windgrass (Apera spica-venti), winter barley (Hordeum vulgare), and winter wheat (Triticum aestivum) were planted into a silt loam soil and treated preemergence with test chemicals formulated in a non-phytotoxic solvent mixture which included a surfactant.
(§3) At the same time, these species were planted in pots containing Redi-Earth® planting medium (Scotts Company, 14111 Scottslawn Road, Marysville, Ohio 43041) comprising spaghnum peat moss, vermiculite, wetting agent and starter nutrients and treated with postemergence applications of the test chemicals formulated in the same manner. Plants ranged in height from 2 to 18 cm (1- to 4-leaf stage). Treated plants and controls were maintained in a controlled growth environment for 7 to 21 days after which time all species were compared to controls and visually evaluated. Plant response ratings, summarized in Table D, are based on a scale of 0 to 100 where 0 is no effect and 100 is complete control. A dash (-) response means no test result.

[3] = test system: Italian ryegrass; assay: Test D postemergence; assay type: in vivo, Lolium multiflorum; settings: Lolium multiflorum, post-emergence, scale 0 to 100 (0 no effect, 100 complete control), read-out: Plant response rating, Ryegrass, Italian
Method in brief: as §1

[4] = test system: wild oat; assay: Test D postemergence; assay type: in vivo, Avena fatua; settings: Avena fatua, post-emergence, scale 0 to 100 (0 no effect, 100 complete control), read-out: Plant response rating, Oat, Wild
Text: as §2, §3

[5] = test system: oilseed rape; assay: Test D preemergence; assay type: in vivo, Brassica napus; settings: Brassica napus, pre-emergence, scale 0-100, read-out: Plant response rating, Oilseed Rape
Text: as §2, §3

[6] = test system: speedwell; assay: Test D preemergence; assay type: in vivo, Veronica persica; settings: Veronica persica, pre-emergence
Method in brief: as §1

[7] = test system: windgrass; assay: Test D postemergence; assay type: in vivo, Apera spica-venti; settings: Apera spica-venti, post-emergence, scale 0 to 100 (0 no effect, 100 complete control), read-out: Plant response rating, Windgrass
Method in brief: as §1

[8] = test system: wild buckwheat; assay: Test D postemergence; assay type: in vivo, Polygonum convolvulus; settings: Fallopia convolvulus, post-emergence, Postemergence, scale 0 to 100 (0 no effect, 100 complete control), read-out: Plant response rating, Buckwheat, Wild
Method in brief: as §1

N#Cc1cccc(Oc2ncc(Cl)cn2)c1-n1cc(Br)cn1 [Compound 52, 2-(4-bromo-1H-pyrazol-1-yl)-3-[(5-chloro-2-pyrimidinyl)oxy]benzonitrile]
pest or weed control at 31 g/ha ([1]; 31 g ai/ha): 95%
pest or weed control at 62 g/ha ([1]; 62 g ai/ha): 80%
pest or weed control at 125 g/ha ([1]; 125 g ai/ha): 90%
pest or weed control at 250 g/ha ([1]; 250 g ai/ha): 100%
pest or weed control at 31 g/ha ([2]; 31 g ai/ha): 70%
pest or weed control at 62 g/ha ([2]; 62 g ai/ha): 80%
pest or weed control at 125 g/ha ([2]; 125 g ai/ha): 95%
pest or weed control at 250 g/ha ([2]; 250 g ai/ha): 100%
pest or weed control at 31 g/ha ([3]; 31 g ai/ha): 5%
pest or weed control at 62 g/ha ([3]; 62 g ai/ha): 5%
pest or weed control at 125 g/ha ([3]; 125 g ai/ha): 20%
pest or weed control at 250 g/ha ([3]; 250 g ai/ha): 35%
pest or weed control at 31 g/ha ([4]; 31 g ai/ha): 20%
pest or weed control at 62 g/ha ([4]; 62 g ai/ha): 35%
pest or weed control at 125 g/ha ([4]; 125 g ai/ha): 30%
pest or weed control at 250 g/ha ([4]; 250 g ai/ha): 35%
plant injury at 31 g/ha ([5]; 31 g ai/ha): 0%
plant injury at 62 g/ha ([5]; 62 g ai/ha): 80%
plant injury at 125 g/ha ([5]; 125 g ai/ha): 100%
plant injury at 250 g/ha ([5]; 250 g ai/ha): 100%
pest or weed control at 31 g/ha ([6]; 31 g ai/ha, scale 0 (no effect) to 100 (complete control), read-out: Plant response rating, Speedwell): 100%
pest or weed control at 62 g/ha ([6]; 62 g ai/ha, scale 0-100, read-out: Plant response rating, Speedwell): 100%
pest or weed control at 125 g/ha ([6]; 125 g ai/ha, scale 0-100, read-out: Plant response rating, Speedwell): 100%
pest or weed control at 250 g/ha ([6]; 250 g ai/ha, scale 0-100, read-out: Plant response rating, Speedwell): 100%
pest or weed control at 31 g/ha ([7]; 31 g ai/ha): 15%
pest or weed control at 62 g/ha ([7]; 62 g ai/ha): 20%
pest or weed control at 125 g/ha ([7]; 125 g ai/ha): 25%
pest or weed control at 250 g/ha ([7]; 250 g ai/ha): 40%
pest or weed control at 31 g/ha ([8]; 31 g ai/ha): 80%
pest or weed control at 62 g/ha ([8]; 62 g ai/ha): 95%
pest or weed control at 125 g/ha ([8]; 125 g ai/ha): 100%
pest or weed control at 250 g/ha ([8]; 250 g ai/ha): 100%
